Experimental data reported in the supplement of paper PMC8671470.
± gives the standard deviation of the averaged measurements.

Experiments:
Conditions in all cases: 72 h
[1] = system: HL-60; test: cell viability (% survival relative to DMSO control); higher = less cytotoxic
Method in brief: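 Four-parameter log-logistic fits in drc and PharmacoGx supplied area under the curve where it is given. Underlying viability came from CellTiter-Glo, normalised to DMSO and proteasome-inhibitor wells, with the proteasome inhibitor at 10 μM. HL-60 cells in RPMI 1640 plus 10% FBS had been rescreened against the full library at five tenfold concentrations of 1–10,000 nM, in duplicate on 384-well plates, with DMSO or 100 nM of one of three metabolic inhibitors, for 72 h at 37 °C, 5% CO2.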

[2] = system: Mono-Mac-6; test: cell viability (% survival relative to DMSO control, bortezomib = 0%); higher = less cytotoxic
Method in brief: (§1)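 Fifteen myeloid leukaemia cell lines (10 AML, 5 CML) were seeded at a density titrated to the linear growth range into 384-well plates pre-printed with compounds at 1, 10, 100, 1000 or 10000 nM in duplicate. Plates were incubated for 72 h at 37 °C with 5% CO2. Viability was then read by CellTiter-Glo luminescence. Each value is percent survival averaged over the duplicates, with vehicle set to 100% and a 10 µM positive control to 0%.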

[3] = system: NOMO-1; test: as above
Method in brief: as §1

[4] = system: MV4-11; test: as above
Method in brief: as §1

[5] = system: HL-60; test: as above
Method in brief: as §1

[6] = system: HEL; test: as above
Method in brief: as §1

[7] = system: THP-1; test: as above
Method in brief: as §1

[8] = system: SHI-1; test: as above
Method in brief: as §1

[9] = system: LAMA-84; test: as above
Method in brief: as §1

[10] = system: BV-173; test: as above
Method in brief: as §1

[11] = system: KU-812; test: as above
Method in brief: as §1

[12] = system: ML-2; test: as above
Method in brief: as §1

[13] = system: K-562; test: as above
Method in brief: as §1

[14] = system: KCL-22
Method in brief: (§2)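 Fifteen myeloid leukaemia lines in RPMI 1640 were treated for 72 h at 37 °C and 5% CO2 with five tenfold doses from 1 to 10,000 nM, in duplicate. ATP luminescence was normalised to vehicle and to a positive control at 10 µM, then fitted with a four-parameter log-logistic model. The IC50 came from these fits.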

[15] = system: Mono-Mac-6
Method in brief: as §2

[16] = system: NOMO-1
Method in brief: as §2

[17] = system: MV4-11
Method in brief: as §2

[18] = system: HL-60
Method in brief: as §2

[19] = system: HEL
Method in brief: as §2

[20] = system: THP-1
Method in brief: as §2

[21] = system: KG-1
Method in brief: as §2

[22] = system: SHI-1
Method in brief: as §2

[23] = system: LAMA-84
Method in brief: as §2

[24] = system: MOLM-13
Method in brief: as §2

[25] = system: BV-173
Method in brief: as §2

[26] = system: KU-812
Method in brief: as §2

[27] = system: ML-2
Method in brief: as §2

[28] = system: K-562
Method in brief: as §2

CCC(=O)N1CCN(c2ccc(-n3c(=O)ccc4cnc5ccc(-c6cnc7ccccc7c6)cc5c43)cc2C(F)(F)F)CC1 [Torin1]
cell viability [%], [1]
Conditions	0.001 µM	0.01 µM	0.1 µM	1 µM	10 µM
co-treatment: AZD3965 100 nM	105 ± 6.4	100 ± 18	91.3 ± 18	99 ± 2.9	51.4 ± 2.1
co-treatment: DMSO vehicle	97.9 ± 4.5	102.1 ± 0.92	93.4 ± 14	101 ± 3.5	65.4 ± 8.4
co-treatment: GSK2194069 100 nM	106 ± 8	106 ± 1.1	92.1 ± 16	104.4 ± 0.71	72.7 ± 3.2
co-treatment: pictilisib 100 nM	100 ± 6.4	104 ± 1.5	80 ± 22	85.8 ± 5.2	65.5 ± 3.1

cell viability [%]
Conditions	1 nM	10 nM	100 nM	1000 nM	10000 nM
[2]	92.2	85.5	75.8	35.7	21.7
[3]	109	96.2	93.4	47.5	37.1
[4]	88.9	95.7	90.8	26.1	11.1
[5]	73.2	95.1	85.7	65.3	24.6
[6]	109	105	99.3	36.4	14.7
[7]	104	98.5	96.9	58.9	33.9
[8]	89.8	92	80.2	48.9	69.4
[9]	105	93.1	80.2	28.8	21.8
[10]	111	80.7	89.1	20.9	8.44
[11]	97.7	87.1	73.1	24.4	20.1
[12]	96.1	99.7	91.5	46.5	33.5
[13]	108	87	85.9	24.7	11.7

Conditions	IC50 (cell viability) [µM]
[14]	0.251
[15]	0.333
[16]	0.672
[17]	0.486
[18]	1.75
[19]	0.594
[20]	1.11
[21]	0.295
[22]	> 10
[23]	0.222
[24]	0.208
[25]	0.377
[26]	0.191
[27]	0.616
[28]	0.327

NC(=O)c1cccc(-c2cccc(OC(=O)NC3CCCCC3)c2)c1 [URB-597]
cell viability [%], [1]
Conditions	0.001 µM	0.01 µM	0.1 µM	1 µM	10 µM
co-treatment: AZD3965 100 nM	101 ± 2.7	105 ± 2.3	101 ± 8.3	103 ± 8.5	103 ± 2
co-treatment: DMSO vehicle	100 ± 5.5	104 ± 6.3	99.6 ± 1.3	100 ± 1.9	102 ± 2.3
co-treatment: GSK2194069 100 nM	103 ± 3.4	113.65 ± 0.074	98.1 ± 5.4	101 ± 11	104 ± 6.6
co-treatment: pictilisib 100 nM	108 ± 3.8	106.8 ± 0.33	100 ± 8.5	97.2 ± 8.2	111 ± 5.6

cell viability [%]
Conditions	1 nM	10 nM	100 nM	1000 nM	10000 nM
[2]	102	99.6	97.2	117	123
[3]	101	103	105	96.1	110
[4]	96.4	96.5	109	99.6	89.5
[5]	98.7	89.2	114	94.3	103
[6]	102	104	103	110	95.2
[7]	98.5	93.8	105	99.1	102
[8]	93.9	86.1	89.4	100	110
[9]	99.8	96.9	99.6	98.3	96.1
[10]	91	104	105	104	115
[11]	92.1	99.1	103	103	87.2
[12]	92.2	94.2	105	105	114
[13]	102	98	100	90.6	100

Conditions	IC50 (cell viability) [µM]
[14]	> 10
[15]	> 10
[16]	> 10
[17]	> 10
[18]	> 10
[19]	> 10
[20]	> 10
[21]	> 10
[22]	> 10
[23]	> 10
[24]	> 10
[25]	> 10
[26]	> 10
[27]	> 10
[28]	> 10

O=C1O[C@H]([C@@H](O)CO)C(O)=C1O [Vitamin C (ascorbate)]
cell viability [%], [1]
Conditions	0.001 µM	0.01 µM	0.1 µM	1 µM	10 µM
co-treatment: AZD3965 100 nM	89.82 ± 0.29	94.8 ± 6.4	101 ± 2	103 ± 4.3	67.9 ± 35
co-treatment: DMSO vehicle	102 ± 1.1	95.8 ± 7.2	98.77 ± 0.68	103 ± 2.7	88.3 ± 13
co-treatment: GSK2194069 100 nM	88.6 ± 17	100 ± 1.1	96.8 ± 6.4	101 ± 4.3	95.5 ± 1.6
co-treatment: pictilisib 100 nM	80.3 ± 1.6	81.6 ± 28	96.3 ± 3.5	95.46 ± 0.63	75.2 ± 19

cell viability [%]
Conditions	1 nM	10 nM	100 nM	1000 nM	10000 nM
[2]	103	109	98.8	101	108
[3]	95.5	100	110	97.8	102
[4]	102	102	111	111	92.1
[5]	104	91.2	101	108	84.7
[6]	103	106	98.9	107	113
[7]	96.4	100	103	103	99.9
[8]	110	106	105	102	114
[9]	106	106	113	101	102
[10]	94.2	113	103	99.2	118
[11]	96.8	104	99.5	95	108
[12]	103	107	100	102	121
[13]	99.2	96.3	92.8	104	89.4

Conditions	IC50 (cell viability) [µM]
[14]	> 10
[15]	> 10
[16]	> 10
[17]	> 10
[18]	> 10
[19]	> 10
[20]	> 10
[21]	> 10
[22]	> 10
[23]	> 10
[24]	> 10
[25]	> 10
[26]	> 10
[27]	> 10
[28]	> 10
